These compounds were tested against human PDE4D catalytic domain (Homo sapiens (Human), UniProt Q08499) (assay: PDE4 Assay (TR-FRET, FAM-cAMP cleavage)). Conditions: Table 16, Examples 277-296; read-out: PDE4 IC50 range.
Assay type: biochemical
Summary of the method: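 PDE4D catalytic domain (S380-L740) incubated briefly with unlabelled cAMP plus FAM-cAMP and titrated compound. Reaction stopped with binding buffer holding metal-ion nanoparticles that bind AMP phospho groups and Tb donor, and AMP formation read by TR-FRET. IC50 versus controls, reported as ranges (nM).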

Sequence of human PDE4D catalytic domain (Q08499 380-740): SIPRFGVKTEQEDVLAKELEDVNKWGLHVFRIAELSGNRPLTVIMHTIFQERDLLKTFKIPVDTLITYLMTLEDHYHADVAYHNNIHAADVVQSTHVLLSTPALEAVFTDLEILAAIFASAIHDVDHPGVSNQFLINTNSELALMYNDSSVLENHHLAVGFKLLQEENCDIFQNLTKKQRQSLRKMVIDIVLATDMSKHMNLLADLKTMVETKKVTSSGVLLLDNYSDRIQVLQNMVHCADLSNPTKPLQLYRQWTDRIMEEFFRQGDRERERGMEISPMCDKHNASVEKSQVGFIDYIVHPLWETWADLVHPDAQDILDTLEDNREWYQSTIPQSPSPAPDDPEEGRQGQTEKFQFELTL

Structure (SMILES)	IC50 [nM]
CCn1nc(C[C@@H](C)COC(=O)c2coc(C)n2)c2c1C(=O)NCC1(CCOCC1)C2 [Example 281, [(2R)-3-(1-ethyl-8-oxo-spiro[6,7-dihydro-4H-pyrazolo[3,4-c]azepine-5,4′-tetrahydropyran]-3-yl)-2-methyl-propyl] 2-methyloxazole-4-carboxylate]	< 100

Same assay, conditions: Table 17, Examples 297-316; read-out: PDE4 IC50 range

Structure (SMILES)	IC50 [nM]
CCn1nc(CC(C)(C)COC(=O)c2cocn2)c2c1C(=O)NCC1(CCOCC1)C2 [Example 297, [3-(1-ethyl-8-oxo-spiro[6,7-dihydro-4H-pyrazolo[3,4-c]azepine-5,4′-tetrahydro-pyran]-3-yl)-2,2-dimethyl-propyl] oxazole-4-carboxylate]	< 100
CCn1nc(CC(C)(C)COC(=O)c2cnsc2)c2c1C(=O)NCC1(CCOCC1)C2 [Example 304, [3-(1-ethyl-8-oxo-spiro[6,7-dihydro-4H-pyrazolo[3,4-c]azepine-5,4′-tetrahydro-pyran]-3-yl)-2,2-dimethyl-propyl] isothiazole-4-carboxylate]	< 100

Same assay, conditions: human PDE4D catalytic domain (UniProt Q08499 [S380-L740]); 50% inhibition of substrate cleavage; read-out: PDE4 IC50 range

Structure (SMILES)	IC50 [nM]
CCn1nc(CCCOC(=O)C2CCOCC2)c2c1C(=O)NCC1(CCOCC1)C2 [Example 246, 3-(1-ethyl-8-oxo-spiro[6,7-dihydro-4H-pyrazolo[3,4-c]azepine-5,4′-tetrahydropyran]-3-yl)propyl tetrahydropyran-4-carboxylate]	< 100
CCn1nc(CCCOC(=O)c2ccc(OC)c(F)c2)c2c1C(=O)NCC1(CCOCC1)C2 [Example 35, 3-(1-ethyl-8-oxo-spiro[6,7-dihydro-4H-pyrazolo[3,4-c]azepine-5,4′-tetrahydropyran]-3-yl)propyl 3-fluoro-4-methoxy-benzoate]	< 100
CCn1nc(CCCOC(=O)c2cc(F)ccc2Cl)c2c1C(=O)NCC1(CCOCC1)C2 [Example 46, 3-(1-ethyl-8-oxo-spiro[6,7-dihydro-4H-pyrazolo[3,4-c]azepine-5,4′-tetrahydropyran]-3-yl)propyl 2-chloro-5-fluoro-benzoate]	< 100
CCn1nc(CCCOC(=O)c2ccc(C(=O)N3CCN(C)CC3)cc2)c2c1C(=O)NCC1(CCOCC1)C2 [Example 110, 3-(1-ethyl-8-oxo-spiro[6,7-dihydro-4H-pyrazolo[3,4-c]azepine-5,4′-tetrahydropyran]-3-yl)propyl 4-(4-methylpiperazine-1-carbonyl)benzoate]	< 100
CCn1nc(CCCOC(=O)c2ccc(C(=O)N3CCOCC3)cc2)c2c1C(=O)NCC1(CCOCC1)C2 [Example 109, 3-(1-ethyl-8-oxo-spiro[6,7-dihydro-4H-pyrazolo[3,4-c]azepine-5,4′-tetrahydropyran]-3-yl)propyl 4-(morpholine-4-carbonyl)benzoate]	< 100
CCn1nc(C[C@@H](C)COC(=O)c2ccc(S(=O)(=O)N(C)C)cc2)c2c1C(=O)NCC1(CCOCC1)C2 [Example 161, [(2R)-3-(1-ethyl-8-oxo-spiro[6,7-dihydro-4H-pyrazolo[3,4-c]azepine-5,4′-tetrahydropyran]-3-yl)-2-methyl-propyl] 4-(di-methylsulfamoyl)benzoate]	< 100
CCn1nc(CCCCOC(=O)c2cnc(C)o2)c2c1C(=O)NCC1(CCOCC1)C2 [Example 267, 4-(1-ethyl-8-oxo-spiro[6,7-dihydro-4H-pyrazolo[3,4-c]azepine-5,4′-tetrahydropyran]-3-yl)butyl 2-methyloxazole-5-carboxylate]	< 100
CCn1nc(C[C@@H](C)COC(=O)c2ccc(S(C)(=O)=O)cc2)c2c1C(=O)NCC1(CCOCC1)C2 [Example 155, [(2R)-3-(1-ethyl-8-oxo-spiro[6,7-dihydro-4H-pyrazolo[3,4-c]azepine-5,4′-tetrahydropyran]-3-yl)-2-methyl-propyl] 4-methylsulfonylbenzoate]	< 100
CCn1nc(CCCOC(=O)c2c(F)cccc2F)c2c1C(=O)NCC1(CCOCC1)C2 [Example 26, 3-(1-ethyl-8-oxo-spiro[6,7-dihydro-4H-pyrazolo[3,4-c]azepine-5,4′-tetrahydropyran]-3-yl)propyl 2,6-difluorobenzoate]	< 100
CCn1nc(CCCOC(=O)c2cccc(F)c2F)c2c1C(=O)NCC1(CCOCC1)C2 [Example 24, 3-(1-ethyl-8-oxo-spiro[6,7-dihydro-4H-pyrazolo[3,4-c]azepine-5,4′-tetrahydropyran]-3-yl)propyl 2,3-difluorobenzoate]	< 100
CCn1nc(CCCOC(=O)c2cccc(F)c2C)c2c1C(=O)NCC1(CCOCC1)C2 [Example 21, 3-(1-ethyl-8-oxo-spiro[6,7-dihydro-4H-pyrazolo[3,4-c]azepine-5,4′-tetrahydropyran]-3-yl)propyl 3-fluoro-2-methyl-benzoate]	< 100
CCn1nc(C[C@@H](C)COC(=O)c2ccc(C(C)=O)cc2)c2c1C(=O)NCC1(CCOCC1)C2 [Example 153, [(2R)-3-(1-ethyl-8-oxo-spiro[6,7-dihydro-4H-pyrazolo[3,4-c]azepine-5,4′-tetrahydropyran]-3-yl)-2-methyl-propyl] 4-acetylbenzoate]	< 100
CCn1nc(CCCOC(=O)c2ccc(F)cc2OC)c2c1C(=O)NCC1(CCOCC1)C2 [Example 40, 3-(1-ethyl-8-oxo-spiro[6,7-dihydro-4H-pyrazolo[3,4-c]azepine-5,4′-tetrahydropyran]-3-yl)propyl 4-fluoro-2-methoxy-benzoate]	< 100
CCn1nc(CCCCOC(=O)c2ccc(C(=O)NC)cc2)c2c1C(=O)NCC1(CCOCC1)C2 [Example 128, 4-(1-ethyl-8-oxo-spiro[6,7-dihydro-4H-pyrazolo[3,4-c]azepine-5,4′-tetrahydropyran]-3-yl)butyl 4-(methyl-carbamoyl)benzoate]	< 100
CCn1nc(CCCOC(=O)c2ccc(F)cc2C(F)(F)F)c2c1C(=O)NCC1(CCOCC1)C2 [Example 71, 3-(1-ethyl-8-oxo-spiro[6,7-dihydro-4H-pyrazolo[3,4-c]azepine-5,4′-tetrahydro-pyran]-3-yl)propyl 4-fluoro-2-(trifluoromethyl)benzoate]	< 100
CCn1nc(C[C@@H](C)COC(=O)c2cccc(S(=O)(=O)N3CCOCC3)c2)c2c1C(=O)NCC1(CCOCC1)C2 [Example 164, [(2R)-3-(1-ethyl-8-oxo-spiro[6,7-dihydro-4H-pyrazolo[3,4-c]azepine-5,4′-tetrahydropyran]-3-yl)-2-methyl-propyl] 3-morpholinosulfonylbenzoate]	< 100
CCn1nc(C[C@@H](C)COC(=O)[C@H]2CC[C@H](O)CC2)c2c1C(=O)NCC1(CCOCC1)C2 [Example 146, [(2R)-3-(1-ethyl-8-oxo-spiro[6,7-dihydro-4H-pyrazolo[3,4-c]azepine-5,4′-tetrahydropyran]-3-yl)-2-methyl-propyl] 4-hydroxy-cyclohexanecarboxylate]	< 100
CCn1nc(CC(C)(C)COC(=O)c2cccc(C(=O)N(C)C)c2)c2c1C(=O)NCC1(CCOCC1)C2 [Example 229, [3-(1-ethyl-8-oxo-spiro[6,7-dihydro-4H-pyrazolo[3,4-c]azepine-5,4′-tetrahydro-pyran]-3-yl)-2,2-dimethyl-propyl] 3-(dimethyl-carbamoyl)benzoate]	< 100
CCn1nc(CCCCOC(=O)C2CCN(C(C)=O)CC2)c2c1C(=O)NCC1(CCOCC1)C2 [Example 274, 4-(1-ethyl-8-oxo-spiro[6,7-dihydro-4H-pyrazolo[3,4-c]azepine-5,4′-tetrahydropyran]-3-yl)butyl 1-acetylpiperidine-4-carboxylate]	< 100
CCn1nc(CCCCOC(=O)c2cnsc2)c2c1C(=O)NCC1(CCOCC1)C2 [Example 268, 4-(1-ethyl-8-oxo-spiro[6,7-dihydro-4H-pyrazolo[3,4-c]azepine-5,4′-tetrahydropyran]-3-yl)butyl isothiazole-4-carboxylate]	< 100
CCn1nc(C[C@@H](C)COC(=O)c2cccc(C(=O)N3CCN(C(C)=O)CC3)c2)c2c1C(=O)NCC1(CCOCC1)C2 [Example 185, [(2R)-3-(1-ethyl-8-oxo-spiro[6,7-dihydro-4H-pyrazolo[3,4-c]azepine-5,4′-tetrahydropyran]-3-yl)-2-methyl-propyl] 3-(4-acetylpiperazine-1-carbonyl)benzoate]	< 100
CCn1nc(CCCOC(=O)c2ccc(C#N)c(F)c2)c2c1C(=O)NCC1(CCOCC1)C2 [Example 32, 3-(1-ethyl-8-oxo-spiro[6,7-dihydro-4H-pyrazolo[3,4-c]azepine-5,4′-tetrahydropyran]-3-yl)propyl 4-cyano-3-fluoro-benzoate]	< 100
CCn1nc(CCCOC(=O)c2cccc(S(=O)(=O)N3CCOCC3)c2)c2c1C(=O)NCC1(CCOCC1)C2 [Example 99, 3-(1-ethyl-8-oxo-spiro[6,7-dihydro-4H-pyrazolo[3,4-c]azepine-5,4′-tetrahydropyran]-3-yl)propyl 3-morpholinosulfonylbenzoate]	< 100
CCn1nc(CCCOC(=O)c2ccc(S(=O)(=O)CC)cc2)c2c1C(=O)NCC1(CCOCC1)C2 [Example 77, 3-(1-ethyl-8-oxo-spiro[6,7-dihydro-4H-pyrazolo[3,4-c]azepine-5,4′-tetrahydro-pyran]-3-yl)propyl 4-ethylsulfonylbenzoate]	< 100
CCn1nc(CCCOC(=O)c2cc(F)cc(Cl)c2)c2c1C(=O)NCC1(CCOCC1)C2 [Example 47, 3-(1-ethyl-8-oxo-spiro[6,7-dihydro-4H-pyrazolo[3,4-c]azepine-5,4′-tetrahydropyran]-3-yl)propyl 3-chloro-5-fluoro-benzoate]	< 100
CCn1nc(CCCOC(=O)c2cccc(OC)c2)c2c1C(=O)NCC1(CCOCC1)C2 [Example 17, 3-(1-ethyl-8-oxo-spiro[6,7-dihydro-4H-pyrazolo[3,4-c]azepine-5,4′-tetrahydropyran]-3-yl)propyl 3-methoxybenzoate]	< 100
CCc1cc(C(=O)OCCCc2nn(CC)c3c2CC2(CCOCC2)CNC3=O)nn1C [Example 259, 3-(1-ethyl-8-oxo-spiro[6,7-dihydro-4H-pyrazolo[3,4-c]azepine-5,4′-tetrahydro-pyran]-3-yl)propyl 5-ethyl-1-methyl-pyrazole-3-carboxylate]	< 100
